According to US12679805B2, “Bioactive substance exhibiting antimalarial activity, and use for same” (RIKEN, priority 2021, dated 2026):
Values after ≈ are worked out from the molar mass of the structure shown. Values joined by “and” are separate entries in the source; they are usually repeats but may differ in a detail not shown here. Equal entries are not always repeated.

Assays:
[1] = system: HL-60 cells; assay: Cytotoxicity (growth inhibitory activity), HL-60 cells; format: cell-based; conditions: for IC50: Homo sapiens
Description: (§1) Subsequently, the cytotoxicity of DHLC was examined. More specifically, the activity of DHLC to various types of cancer cells (Hela cells, HL-60 cells, MKN74 cells, NB-1 cells, T98G cells) were examined.

[2] = system: Plasmodium falciparum; conditions: reported in Non Patent Literature 1; cited from earlier work
[3] = system: Hela cells; assay: Cytotoxicity (growth inhibitory activity), HeLa cells; format: cell-based; conditions: for IC50: Homo sapiens
Description: as §1

[4] = system: T98G cells; assay: Cytotoxicity (growth inhibitory activity), T98G cells; format: cell-based
Description: as §1

[5] = system: MKN74 cells; assay: Cytotoxicity (growth inhibitory activity), MKN74 cells; format: cell-based
Description: as §1

[6] = system: NB-1 cells; assay: Cytotoxicity (growth inhibitory activity), NB-1 cells; format: cell-based; conditions: Homo sapiens, NB1
Description: as §1

[7] = system: wild-type Plasmodium falciparum (pf3D7 strain); assay: Antimalarial activity, pLDH Malstat analysis, wild-type Plasmodium falciparum (pf3D7 strain); format: cell-based
Procedure: Specifically, first, a wild-type malarial parasite, Plasmodium falciparum (pf3D7 strain) was cultured in a human type-A Rh+ erythrocyte-containing solution prepared such that the hematocrit level was 3% in a hypoxic condition (O2 concentration: 5%, CO2 concentration: 5%). A culture medium used herein was a complete medium (Gibco, RPMI 1640 medium) containing 25 mM N-(2-hydroxyethyl)piperazine-N′-2-ethanesulfonic acid (HEPES), 10 […] glucose, 5 μg/mL gentamicin and 10% bovine serum albumin. Thereafter, DHLC solutions having 16 different concentrations within the range of 0.015 nM to 500 nM as shown in Table 2 were prepared using dimethyl sulfoxide (DMSO). Subsequently, to each of the wells of a 96 well microplate, 100 μl of a culture solution containing Plasmodium falciparum (pf3D7 strain) cultured in accordance with a method as mentioned above, was added, and then, 0.5 μl of a DHLC solution different in concentration was added to each well. Three sample sets were prepared in the same manner by adding 16 DHLC solutions different in concentration to wells, and then, allowed to stand still at 37° C. for 72 hours to expose Plasmodium falciparum (pf3D7 strain) to DHLC. Note that, each well contains the complete medium (RPMI medium), and the malarial parasite concentration was 0.3% and hematocrit level was 2%. Thereafter, the 96 well microplates containing samples were frozen at −80° C. overnight, and then, thawed at room temperature to hemolyze red blood cells. Lactate dehydrogenase (pLDH), which is an intracellular metabolic enzyme of malarial parasite, in the samples contained in individual wells, was stained with a Malstat reagent (Flow Inc.) in accordance with the protocol of Malstat analysis (Am. J. Trop. Med. Hyg. 48(6), 1993, pp. 739-741) known in the art and the absorbance thereof was measured at 620 nm. Based on the results, the infection rates (%) of cells with malarial parasite, at different concentrations of DHLC were calculated. Note that, a positive control used herein was a sample prepared by adding a solution prepared by diluting an existing antimalarial drug, i.e., chloroquine diphosphate, with distilled water, to wild-type Plasmodium falciparum (pf3D7 strain). A negative control used herein was a sample prepared by adding a solution prepared by diluting DMSO with distilled water, to a wild-type Plasmodium falciparum (pf3D7 strain). For measuring a background value, an erythrocyte-containing solution not infected with Plasmodium falciparum, was used.

[8] = system: drug-resistant Plasmodium falciparum (K1); assay: Antimalarial activity against chloroquine-resistant Plasmodium falciparum (K1); format: cell-based; conditions: FIG. 1

C\C=C(/C=C(C)/C=C/C=C/C=C(\C)C(=O)[C@H]1C(=O)N[C@]2(O)CCO[C@H]12)C(=O)OC [Lucilactaene]
IC50 [1]: 7 µg/mL (≈ 17.4 µM)
antimalarial activity IC50 [2]: 0.063 µg/mL
antimalarial effect relative to NG-391 [2]: about 12 times
IC50 [3]: 10 µg/mL (≈ 24.9 µM)

C\C=C(/C=C(C)/C=C/C=C/C=C(\C)C(=O)[C@H]1C(=O)N[C@]2(O)CCO[C@H]12)C(=O)O [Demethyl lucilactaene]
growth inhibitory activity (IC50 value) [1]: >30 µg/mL
growth inhibitory activity (IC50 value) [3]: >30 µg/mL

C\C=C(/C=C(C)/C=C/C=C/C=C(\C)C(=O)[C@]12O[C@H]1C(O)(CCO)NC2=O)C(=O)OC (stereo partly drawn) [NG-391]
IC50 [1]: 6.6 µg/mL (≈ 15.8 µM)
antimalarial activity IC50 [2]: 0.75 µg/mL
IC50 [3]: 5.9 µg/mL (≈ 14.1 µM)

C\C=C(/C=C(C)/C=C/C=C/C=C(\C)C(=O)C1CC(O)(CCO)NC1=O)C(=O)OC (stereo not drawn) [DHLC]
growth inhibitory activity (IC50 value) [4]: >30 µg/mL
IC50 ([4]; Homo sapiens): > 30 µg/mL
growth inhibitory activity (IC50 value) [5]: >30 µg/mL
IC50 ([5]; Homo sapiens, MKN-74): > 30 µg/mL
IC50 [1]: 3.4 µg/mL (≈ 8.43 µM)
IC50 [6]: 0.34 µg/mL (≈ 0.843 µM)
pf3D7(%) infection rate of cells with malarial parasite ([7]; 0.015 nM, 72 hours): 98.9%
pf3D7(%) infection rate of cells with malarial parasite ([7]; 0.03 nM, 72 hours): 109.8%
pf3D7(%) infection rate of cells with malarial parasite ([7]; 0.06 nM, 72 hours): 89.4%
pf3D7(%) infection rate of cells with malarial parasite ([7]; 0.12 nM, 72 hours): 92.9%
pf3D7(%) infection rate of cells with malarial parasite ([7]; 0.24 nM, 72 hours): 77.2%
pf3D7(%) infection rate of cells with malarial parasite ([7]; 0.49 nM, 72 hours): 74.1%
pf3D7(%) infection rate of cells with malarial parasite ([7]; 0.98 nM, 72 hours): 41.7%
pf3D7(%) infection rate of cells with malarial parasite ([7]; 1.95 nM, 72 hours): 28.2%
pf3D7(%) infection rate of cells with malarial parasite ([7]; 3.90 nM, 72 hours): 22.9%
pf3D7(%) infection rate of cells with malarial parasite ([7]; 7.81 nM, 72 hours): 23.7%
pf3D7(%) infection rate of cells with malarial parasite ([7]; 15.63 nM, 72 hours): 13.3%
pf3D7(%) infection rate of cells with malarial parasite ([7]; 31.25 nM, 72 hours): 9.6%
pf3D7(%) infection rate of cells with malarial parasite ([7]; 62.5 nM, 72 hours): 14.3%
pf3D7(%) infection rate of cells with malarial parasite ([7]; 125 nM, 72 hours): 10.2%
pf3D7(%) infection rate of cells with malarial parasite ([7]; 250 nM, 72 hours): 8.5%
pf3D7(%) infection rate of cells with malarial parasite ([7]; 500 nM, 72 hours): 13.9%
IC50 ([7]; Plasmodium falciparum, pf3D7 strain, 72 hours, read-out: growth inhibitory activity (IC50 value)): 0.65 nM and 0.00026 µg/mL
antimalarial activity relative to NG-391 ([7]; versus NG-391 IC50=0.75 μg/ml): ≥ 1000 times
antimalarial activity relative to lucilactaene ([7]; versus lucilactaene IC50=0.063 μg/ml): ≥ 100 times
antimalarial activity against drug-resistant Plasmodium falciparum (K1) [8]: as high as against wild-type Plasmodium falciparum
IC50 [3]: 21 µg/mL (≈ 52 µM)
